Among the data in PubChem BioAssay (NCI) are TGI and GI50 values, retold here.

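Step 1: Grow cells in 96-well plates. Step 2: Expose to compound for 48 hours at 5 concentrations. Step 3: Interpolate endpoints linearly; if unreached, use highest concentration. At the GI50, growth is halved. TGI: concentration producing complete growth inhibition.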

Test systems include M14 melanoma; T-47D breast; K-562 leukemia; HCT-116 colon; OVCAR-3 ovarian; MALME-3M melanoma; RPMI-8226 leukemia; LOX IMVI melanoma; CCRF-CEM leukemia.
What all share (test): NCI-60 cell line screen, 48 h

Take `NC(=Nc1ccc(O)cc1)S(=O)O`: the TGI with M14 melanoma, in the assay on T-47D breast, in the assay with K-562 leukemia, in the assay with HCT-116 colon, with OVCAR-3 ovarian and in the assay on MALME-3M melanoma was > 100 µM each time. Besides, the TGI with RPMI-8226 leukemia, with LOX IMVI melanoma and in the assay on CCRF-CEM leukemia was > 100 µM each time.
As for `Cc1cc(NS(=O)(=O)c2ccc(Nc3c4ccccc4nc4ccc(C(=O)Nc5ccc(S(N)(=O)=O)cc5)cc34)cc2)no1`, the TGI in the assay with M14 melanoma, in the assay with T-47D breast, in the assay with K-562 leukemia, in the assay on HCT-116 colon, in the assay on OVCAR-3 ovarian and with MALME-3M melanoma was > 100 µM in each case. The TGI with RPMI-8226 leukemia, in the assay with LOX IMVI melanoma and in the assay with CCRF-CEM leukemia was > 100 µM in each case.
Turning to `O=C1/C(=C/c2ccco2)N=C(c2ccccc2)N1c1cc2cc(Sc3ccccc3)ccc2[nH]1`, the TGI is > 25 µM with M14 melanoma; > 25 µM in the assay on T-47D breast; > 25 µM in the assay with K-562 leukemia; > 25 µM in the assay on HCT-116 colon; > 25 µM in the assay on MALME-3M melanoma; 2.4 µM in the assay on RPMI-8226 leukemia. Further, the TGI in the assay on LOX IMVI melanoma and with CCRF-CEM leukemia was > 25 µM each time.
Turning to `COc1ccc2c(c1)CCC1=CC3(CCC12C)SCCS3` (stereo not drawn), the TGI is > 10 µM in the assay on M14 melanoma; > 10 µM in the assay with T-47D breast; > 10 µM with K-562 leukemia; 7.71 µM with OVCAR-3 ovarian; > 10 µM in the assay on MALME-3M melanoma; > 10 µM in the assay on RPMI-8226 leukemia. In addition, the TGI with LOX IMVI melanoma and in the assay on CCRF-CEM leukemia was > 10 µM each time.
As to `COc1cc2c(cc1OC)C(N)CC2=O` (stereo not drawn), the TGI in the assay with M14 melanoma, with T-47D breast, in the assay on K-562 leukemia, in the assay with HCT-116 colon, in the assay with OVCAR-3 ovarian and in the assay on RPMI-8226 leukemia was > 100 µM throughout. The TGI in the assay on LOX IMVI melanoma and with CCRF-CEM leukemia was > 100 µM in each case.
Regarding `COc1ccc([C@@]23OC[C@@H]4[C@@H](OC[C@@H]42)c2cc(OC)c(OC)cc23)cc1OC`, the TGI with M14 melanoma, in the assay on T-47D breast, in the assay with K-562 leukemia, in the assay with HCT-116 colon, in the assay on OVCAR-3 ovarian and in the assay on MALME-3M melanoma was > 100 µM in each case. Besides, the TGI in the assay with RPMI-8226 leukemia and in the assay on LOX IMVI melanoma was > 100 µM each time.
For `NC(=O)NC(=O)c1cccc(NC(=O)CBr)c1`, the TGI is 0.549 µM in the assay on M14 melanoma; 3.7 µM in the assay with T-47D breast; 1.49 µM with K-562 leukemia; < 0.01 µM in the assay with HCT-116 colon; 0.024 µM with OVCAR-3 ovarian; 0.746 µM in the assay with MALME-3M melanoma. Also, the results for the TGI in the assay with RPMI-8226 leukemia and in the assay on LOX IMVI melanoma were 0.306 µM and 0.193 µM, respectively.
With `O=C(O)CCCOc1cc(-c2ccccc2F)nc2cc3c(cc12)OCO3`, the TGI was > 100 µM in the assay on M14 melanoma; > 100 µM in the assay on T-47D breast; > 100 µM with HCT-116 colon; 6.74 µM in the assay with OVCAR-3 ovarian; > 100 µM with MALME-3M melanoma; > 100 µM in the assay with RPMI-8226 leukemia. For the same compound, the TGI in the assay with LOX IMVI melanoma is > 100 µM; with CCRF-CEM leukemia, 9.86 µM. Besides, the GI50 was 3.99 µM in the assay with HCT-116 colon and 2.35 µM in the assay with OVCAR-3 ovarian.
As to `N#CC(Cc1ccccc1Br)N(CCC1=CCCCC1)C(c1ccccc1)c1ccccc1` (stereo not drawn), the TGI in the assay on M14 melanoma, in the assay on T-47D breast, in the assay on K-562 leukemia, in the assay on HCT-116 colon, in the assay with OVCAR-3 ovarian and in the assay with MALME-3M melanoma was > 100 µM each time. In the assay with RPMI-8226 leukemia, this compound gave a TGI of 83.5 µM.
In the case of `C[C@]12[C@@H]3CC[C@H]1[C@@H](OC(=O)Nc1cc([N+](=O)[O-])cc([N+](=O)[O-])c1)C(=O)N2CC3`, the TGI with M14 melanoma, with T-47D breast, in the assay on K-562 leukemia, in the assay with HCT-116 colon, with MALME-3M melanoma and in the assay on RPMI-8226 leukemia was > 100 µM each time. Also, the TGI in the assay on LOX IMVI melanoma and in the assay with CCRF-CEM leukemia was > 100 µM in each case.
With `Cc1c2c(n(CCN(C)C)c1C)NN=C(C#N)S2(=O)=O`, the TGI with M14 melanoma, in the assay with T-47D breast, with K-562 leukemia, in the assay on HCT-116 colon, with OVCAR-3 ovarian and in the assay with MALME-3M melanoma was > 100 µM each time. Besides, the TGI with RPMI-8226 leukemia and in the assay with LOX IMVI melanoma was > 100 µM throughout.
On to `O=C(c1cccc(C(=O)c2ccc3c4c(cccc24)C(=O)N(c2ccccc2)C3=O)c1)c1ccc2c3c(cccc13)C(=O)N(c1ccccc1)C2=O`, for which the TGI in the assay with M14 melanoma, with K-562 leukemia, in the assay on HCT-116 colon, with OVCAR-3 ovarian, in the assay on MALME-3M melanoma and in the assay with RPMI-8226 leukemia was > 100 µM in each case. For the same compound, in the assay on LOX IMVI melanoma, the TGI was > 100 µM.
In the case of `COc1c(O)c2c(=O)cc(OC)c3c4c(OC)cc(=O)c5c(O)c(OC)c6c(c(c1C(C(C)=O)C6C(C)O)c23)c54` (stereo not drawn), the TGI in the assay on T-47D breast was 1.64 µM; with HCT-116 colon, 3.06 µM; in the assay on OVCAR-3 ovarian, 0.442 µM; in the assay on MALME-3M melanoma, 2.57 µM; with RPMI-8226 leukemia, 1.28 µM; in the assay on LOX IMVI melanoma, 0.32 µM. In the assay on CCRF-CEM leukemia, this compound displayed a TGI of 1.16 µM.
For the compound `CC(=O)OC1CC[C@]2(C)C3CC[C@@]4(C)C(CCC4[C@H](C)CCCC(C)C)[C@@H]3CCC2(Br)C1` (stereo partly drawn), the TGI in the assay on M14 melanoma was > 50 µM; in the assay with T-47D breast, > 50 µM; with K-562 leukemia it was 35.2 µM; with HCT-116 colon it was 16.5 µM; in the assay on OVCAR-3 ovarian it was 42.5 µM; in the assay on MALME-3M melanoma, 23.2 µM. Also, the TGI in the assay with LOX IMVI melanoma was found to be 29.4 µM; with CCRF-CEM leukemia it was 27.3 µM.
For `CCOC(=O)c1cnc(-n2[nH]c3c(c2=O)CCCC3)[nH]c1=O`, the TGI in the assay on M14 melanoma, in the assay with T-47D breast, in the assay on K-562 leukemia, in the assay with HCT-116 colon, in the assay with MALME-3M melanoma and in the assay with RPMI-8226 leukemia was > 100 µM throughout. For the same compound, in the assay on CCRF-CEM leukemia, the TGI was > 100 µM.
As for `CC#CCCN(CC#N)Cc1ccccc1`, the TGI in the assay with M14 melanoma, with T-47D breast, with K-562 leukemia, in the assay on HCT-116 colon, with MALME-3M melanoma and with RPMI-8226 leukemia was > 100 µM each time. The TGI with LOX IMVI melanoma and with CCRF-CEM leukemia was > 100 µM in each case.
